Test results as given in article PMC12067438 (Journal of Medicinal Chemistry, 2025).

Experiments:
[1] = Plasma pharmacokinetics after single oral or intraperitoneal dose; assay type: in vivo, mouse; conditions: for Oral bioavailability (in words): 25 mg/kg oral, mice
[2] = test system: global proteome of H1792 SMARCA4-WT cell line; test: Quantitative TMT mass spectrometry of global proteome; assay type: cell-based, human; conditions: 100 nM YDR1 48 h, 20 nM YD54 24 h
[3] = test system: HCC515 xenograft model (SMARCA4 mutant); test: HCC515 xenograft antitumor efficacy; assay type: in vivo, mouse; conditions: 5 mg/kg once daily, 19 days, 1% Tween 80 formulation
YAP1 = YAP1 phosphorylation immunoblot in H322 cells; assay type: cell-based, human; conditions: H322 SMARCA4 mutant cells, 96 h; 1 µM YDR1, 0.1 µM YD54
[4] = Mouse liver microsomal stability assay; assay type: in vitro ADME; conditions: for remaining (T = 60 min): mouse microsomal assay, with NADPH; for CLint scaled at 1 h / half-life at 1 h / microsomal CLint at 1 h: mouse, liver microsomes
[5] = test system: H2030 xenograft model (SMARCA4 mutant); test: H2030 xenograft antitumor efficacy; assay type: in vivo, mouse; conditions: 5 mg/kg once daily, 17 days, 1% Tween 80 formulation
[6] = Human liver microsomal stability assay; assay type: in vitro ADME; conditions: for remaining (T = 60 min): with NADPH
[7] = test system: H2023 xenograft model (SMARCA4 mutant); test: H2023 xenograft antitumor efficacy; assay type: in vivo, mouse; conditions: 5 mg/kg once daily, 19 days
SMARCA4 = SMARCA4 (Mus musculus, UniProt Q3TKT4); test: PK/PD study: SMARCA4 in spleen by Western blot; assay type: in vivo; conditions: C57BL/6 and Crbn I391V mice, compared to SMARCA2
SMARCA4, sequence (Q3TKT4 whole entry): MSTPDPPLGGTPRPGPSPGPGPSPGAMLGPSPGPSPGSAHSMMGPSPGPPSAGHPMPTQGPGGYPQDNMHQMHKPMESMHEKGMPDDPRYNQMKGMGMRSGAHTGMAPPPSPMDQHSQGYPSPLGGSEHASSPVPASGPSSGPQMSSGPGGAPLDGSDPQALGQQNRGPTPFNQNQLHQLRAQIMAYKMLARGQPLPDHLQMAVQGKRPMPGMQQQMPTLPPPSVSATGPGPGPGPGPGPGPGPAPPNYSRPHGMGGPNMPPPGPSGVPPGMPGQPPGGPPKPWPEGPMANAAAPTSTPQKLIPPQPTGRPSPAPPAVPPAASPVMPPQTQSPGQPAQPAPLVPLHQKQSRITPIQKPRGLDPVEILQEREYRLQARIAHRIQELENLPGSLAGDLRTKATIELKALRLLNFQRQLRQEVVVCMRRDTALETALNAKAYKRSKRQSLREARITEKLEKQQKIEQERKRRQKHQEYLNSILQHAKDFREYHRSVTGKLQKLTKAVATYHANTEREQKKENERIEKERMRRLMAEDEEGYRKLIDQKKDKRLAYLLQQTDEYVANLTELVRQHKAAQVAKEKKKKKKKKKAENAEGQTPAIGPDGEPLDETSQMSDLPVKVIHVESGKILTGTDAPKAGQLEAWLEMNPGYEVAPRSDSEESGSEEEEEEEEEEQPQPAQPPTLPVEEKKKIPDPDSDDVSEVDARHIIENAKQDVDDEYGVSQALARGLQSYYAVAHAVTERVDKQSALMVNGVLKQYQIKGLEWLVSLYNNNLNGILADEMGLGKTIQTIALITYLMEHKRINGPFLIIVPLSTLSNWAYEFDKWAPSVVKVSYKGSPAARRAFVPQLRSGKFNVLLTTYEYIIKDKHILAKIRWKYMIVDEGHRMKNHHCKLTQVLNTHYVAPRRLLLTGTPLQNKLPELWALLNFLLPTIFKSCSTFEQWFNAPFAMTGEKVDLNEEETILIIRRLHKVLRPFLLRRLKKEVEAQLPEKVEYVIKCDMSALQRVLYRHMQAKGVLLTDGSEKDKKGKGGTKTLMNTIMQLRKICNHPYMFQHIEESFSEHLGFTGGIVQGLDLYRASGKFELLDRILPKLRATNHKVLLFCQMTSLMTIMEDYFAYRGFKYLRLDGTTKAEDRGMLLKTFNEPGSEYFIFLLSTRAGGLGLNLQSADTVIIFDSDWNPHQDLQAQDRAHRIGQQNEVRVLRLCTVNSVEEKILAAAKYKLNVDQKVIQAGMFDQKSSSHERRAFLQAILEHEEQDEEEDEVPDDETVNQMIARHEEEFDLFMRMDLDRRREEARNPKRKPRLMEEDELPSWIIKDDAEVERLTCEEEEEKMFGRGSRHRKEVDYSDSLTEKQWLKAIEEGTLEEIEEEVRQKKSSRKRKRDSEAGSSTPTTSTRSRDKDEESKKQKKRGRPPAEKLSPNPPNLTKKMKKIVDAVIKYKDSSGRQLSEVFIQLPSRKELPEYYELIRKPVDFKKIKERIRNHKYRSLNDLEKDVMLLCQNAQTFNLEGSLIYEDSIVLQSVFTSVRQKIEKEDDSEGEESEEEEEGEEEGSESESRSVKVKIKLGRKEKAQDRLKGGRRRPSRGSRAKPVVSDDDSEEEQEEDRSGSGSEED

[8] = test system: H1568 xenograft model (SMARCA4 mutant); test: H1568 xenograft antitumor efficacy; assay type: in vivo, mouse; conditions: 40 mg/kg once daily, 13 days
SMARCA2 = SMARCA2 (Homo sapiens, UniProt P51531); test: SMARCA2 protein levels in xenograft tumors by Western blot; assay type: in vivo; conditions: H1568 xenograft efficacy study, 40 mg/kg once daily, 13 days
SMARCA2, sequence (P51531 whole entry): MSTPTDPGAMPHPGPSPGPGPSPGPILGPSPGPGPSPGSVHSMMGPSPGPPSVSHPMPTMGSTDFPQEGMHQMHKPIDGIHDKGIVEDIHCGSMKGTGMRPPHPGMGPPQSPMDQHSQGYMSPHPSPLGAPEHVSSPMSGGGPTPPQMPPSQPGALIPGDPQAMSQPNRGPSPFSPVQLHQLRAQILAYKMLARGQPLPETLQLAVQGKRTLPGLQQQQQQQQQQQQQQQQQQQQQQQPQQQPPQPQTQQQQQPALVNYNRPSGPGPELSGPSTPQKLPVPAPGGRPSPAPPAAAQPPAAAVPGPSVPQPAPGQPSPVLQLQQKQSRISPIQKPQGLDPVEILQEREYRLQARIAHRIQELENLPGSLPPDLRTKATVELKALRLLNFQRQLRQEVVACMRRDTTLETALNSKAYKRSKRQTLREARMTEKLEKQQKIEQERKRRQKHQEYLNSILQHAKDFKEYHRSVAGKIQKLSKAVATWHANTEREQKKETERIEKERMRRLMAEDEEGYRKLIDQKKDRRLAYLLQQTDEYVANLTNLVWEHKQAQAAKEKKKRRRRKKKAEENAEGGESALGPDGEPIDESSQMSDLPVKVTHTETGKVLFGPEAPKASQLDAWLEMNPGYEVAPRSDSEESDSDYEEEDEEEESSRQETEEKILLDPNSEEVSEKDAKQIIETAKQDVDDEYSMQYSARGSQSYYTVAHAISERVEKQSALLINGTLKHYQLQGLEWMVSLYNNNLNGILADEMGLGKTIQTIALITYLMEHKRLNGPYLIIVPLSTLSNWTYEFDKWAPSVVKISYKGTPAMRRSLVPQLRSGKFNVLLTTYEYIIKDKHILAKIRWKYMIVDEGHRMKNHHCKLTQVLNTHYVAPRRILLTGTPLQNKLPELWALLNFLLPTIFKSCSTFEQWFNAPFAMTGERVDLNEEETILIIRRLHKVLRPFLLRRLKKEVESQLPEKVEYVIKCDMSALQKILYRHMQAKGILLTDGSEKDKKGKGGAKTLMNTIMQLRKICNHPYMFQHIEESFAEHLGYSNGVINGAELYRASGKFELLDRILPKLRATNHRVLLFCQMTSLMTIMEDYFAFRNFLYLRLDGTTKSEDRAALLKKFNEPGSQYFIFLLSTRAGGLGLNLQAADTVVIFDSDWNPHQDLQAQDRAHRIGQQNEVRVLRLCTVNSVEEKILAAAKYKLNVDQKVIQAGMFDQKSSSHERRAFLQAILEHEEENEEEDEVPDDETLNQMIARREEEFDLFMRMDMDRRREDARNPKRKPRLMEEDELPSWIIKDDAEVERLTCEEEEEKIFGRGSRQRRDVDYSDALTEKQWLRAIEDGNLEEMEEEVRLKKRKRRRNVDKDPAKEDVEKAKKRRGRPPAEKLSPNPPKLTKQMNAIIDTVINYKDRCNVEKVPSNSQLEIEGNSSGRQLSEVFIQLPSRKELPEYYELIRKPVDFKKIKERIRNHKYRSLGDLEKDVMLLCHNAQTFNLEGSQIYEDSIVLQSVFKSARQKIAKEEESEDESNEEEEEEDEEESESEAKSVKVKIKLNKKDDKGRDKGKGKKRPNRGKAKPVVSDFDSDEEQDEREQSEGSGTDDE

[9] = 21-day tolerability in mice; assay type: in vivo, mouse
ERK = test: pERK immunoblot in H2030 cells; conditions: sotorasib 0.5 µM, YDR1 or YD54 1.25 µM, 72 hours (YDR1), 48 hours (YD54)

Structure (SMILES) | Oral bioavailability (in words) [1] | SMARCA4 level in TMT proteomics [2] | Phosphorylation of YAP1 at S109 (YAP1) | Phosphorylation of YAP1 at S127 (YAP1) | remaining (T = 60 min) [4] | CLint scaled at 1 h [4] | half-life at 1 h [4] | microsomal CLint at 1 h [4] | Clearance class in human microsomal assays ([6]; human microsomal assay) | remaining (T = 60 min) ([6]; human microsomal assay) | CLint scaled at 1 h ([6]; human, liver microsomes) | other results
Nc1nnc(-c2ccccc2O)cc1N1CCN(Cc2ccc(N3CCN(CCOc4cccc5c4C(=O)N(C4CCC(=O)NC4=O)C5=O)CC3)c(F)c2)CC1 (stereo not drawn) [YD54] | orally bioavailable | minimally altered | drastic increase | potent increase | 0.414 | 119 mL/min/kg | 45.9 min | 30.2 µL/min/mg | moderate clearance | 0.3234 | 35.8 mL/min/kg | reduction in body weight compared to controls [3]: < 20%; reduction in body weight compared to controls [5]: < 20%; half-life at 1 h ([6]; human, liver microsomes, T1/2, human microsomal assay): 34.9 min; reduction in body weight compared to controls [7]: < 10%
Nc1nnc(-c2ccccc2O)cc1N1CCN(Cc2ccc(N3CCC(CN4CCN(c5ccc6c(c5)C(=O)N(C5CCC(=O)NC5=O)C6=O)CC4)CC3)c(F)c2)CC1 (stereo not drawn) [YDR1] | robust oral bioavailability | minimally altered | drastic increase | potent increase | 0.4998 | 91.9 mL/min/kg | 59.7 min | 23.2 µL/min/mg | slow clearance | 0.4743 | 21.5 mL/min/kg | half-life ([1]; CD-1, mouse, plasma, oral, 25 mg/kg): > 1440 min; degradation of SMARCA4 in spleen (SMARCA4): only modestly degraded; Tolerability in efficacy study [8]: well tolerated with no change in body weight; reduction in body weight compared to controls [8]: < 10%; degradation of SMARCA2 in tumors (SMARCA2): about 50%; Body weight and signs of toxicity ([9]; daily treatment up to 80 mg/kg for 21 days): minimal body weight loss and no obvious signs of toxicity or morbidity; Tolerability ([9]; daily treatment with increasing doses up to 80 mg/kg for 21 days): well tolerated; T1/2 ([6]; human microsomal assay): 58.024 min; microsomal CLint at 1 h ([6]; human, liver microsomes): 23.9 µL/min/mg
C=CC(=O)N1CCN(c2nc(=O)n(-c3c(C)ccnc3C(C)C)c3nc(-c4c(O)cccc4F)c(F)cc23)[C@@H](C)C1 [sotorasib] | – | – | – | – | – | – | – | – | – | – | – | phosphorylation of ERK (ERK): robustly reduced phosphorylation of ERK
